Where no end group is shown, it is not given here.
Tested on: human peripheral blood mononuclear cells (PBMCs)
Experiment: Cytokine induction in PBMCs (bead-based immunoassay)
Format: cell-based
Conditions: IL-6, IL10, IL-12p70, IL12-p40, IL-23, TNFα, IL-1ß, IL-1RA, IP-10, TARC; 20 h
Method: Human peripheral blood mononuclear cells (PBMCs) from buffy coat blood samples of healthy donors were stimulated with the indicated doses of L15 and L13 for 20 h. For the subsequent bead-based immunoassay, the cell culture supernatants of a total of four buffy coats per immunoassay were used. Each of the stimulations was performed in biological duplicates. The secreted cytokines were then identified and quantified using the immunofluorescent bead-based immunoassay LEGENDplex® Human Macrophage/Microglia Panel (13-plex) and the corresponding Data Analysis Software from BioLegend. Muramyl Dipeptide (MDP) which activates the NOD-2 receptors was used as the positive control.

Question: TAKGHYFVTTFYRNG [L15] was tested. Which “cytokine inducing activity in PBMCs” value did it give?
Answer: The value was “relatively inert”.

Reference: PMC10117725, “From an Hsp90 - binding protein to a peptide drug” (microLife, 2022)
